The subject of one series is central nervous system. The following applies: has been reported, cited from earlier work.
The next series deals with subjects with GBS. Briefly: Phase II double-blind, placebo controlled, crossover study; motor strength on 0-5 ordinal scale. Type of series: in vivo, human patients. The following applies: on average, fast release 4-AP 10 mg three times daily, oral capsule. From the text: This is a Phase II double-blind, placebo controlled, crossover, dose-escalating study in subjects with […]. An initial trial of ten patients is randomized to one of the two treatment sequences (A or B) as shown below. The study population consists of subjects with GBS injury whose neurological status has been stable for at least eighteen months. Ten subjects are enrolled. Variables to be Collected: The measures of neurological status reported for this study are: • Motor strength was rated on the traditional 0-5 ordinal scale: • 0—absent motor strength • 1—trace motor strength • 2—can move the specified joint but only with gravity eliminated • 3—can move the joint against gravity but not against any opposing force • 4—can move the joint against opposing force but the strength is not normal for the person or symmetrical • 5—normal motor strength This scale is employed to measure the following motor strength for each of these joint motions on both the right and the left sides: hip flexion, hip adduction, hip abduction, knee flexion, knee extension, ankle dorsiflexion, ankle plantar flexion, shoulder abduction, elbow extension, elbow flexion, wrist flexion, and wrist extension. 4-AP is compounded in a #1 quick dissolution capsule containing 5 mg 4-AP and 235 mg lactose. […]

Here are results for two compounds from patent US20110003868A1, “TREATMENT OF A NEUROPATHY WITH RAPID RELEASE AMINOPYRIDINE” (The UAB Research Foundation, priority 2003, published 2011).

With `Nc1ccnc(N)c1` [2,4-DAP, 2,4-diaminopyridine], the Toxicity entry in the series with central nervous system (compared with 4-AP or 2,3-DAP) is recorded as “less toxicity than either 4-AP or 2,3-DAP”. In the series with central nervous system (compared with 4-AP), the “Central nervous system stimulation” value is reported as “less central nervous system stimulation than 4-AP”.
`Nc1ccncc1` [4-AP, 4-aminopyridine]: the “Upper extremity strength increase relative to placebo” value with subjects with GBS came out at 15%. For the same compound, the “Lower extremity strength increase relative to placebo” value in the series with subjects with GBS (hip abduction, hip adduction, hip flexion, knee flexion, ankle dorsiflexion and plantar flexion) was 15%.
